What was measured:
MCF-7 cells = assay: MCF7 Viability Assay (Breast Cancer Cell Viability Assay); type: cell-based; conditions: 5 days' compound exposure, CellTiter-Glo; for IC50: Homo sapiens, MCF7, 120 h
Description: MCF-7 cells were adjusted to a concentration of 20,000 cells per mL in RPMI containing 10% FBS and 20 mM HEPES. 16 microliters of the cell suspension (320 cells) was added to each well of a 384 well plate, and the cells were incubated overnight to allow the cells to adhere. The following day an eleven point, serial semilog dilution of each compound was added to the cells in 16 μL at a final concentration ranging from 0.3-0.000003 μM. After 5 days' compound exposure, 16 μL of CellTiter-GLo (Promega, Madison Wis.) was added to the cells, and the relative luminescence units (RLUs) of each well were determined. CellTiter-Glo added to 32 μL of medium without cells was used to obtain a background value. The Percent viability of each sample was determined as follows: (RLU sample-RLU background/RLU untreated cells-RLU background)×100=% viability.

ER-α = molecular target: T1, ER-α (Homo sapiens, UniProt P03372); assay: Breast Cancer Cell ER-α In Cell Western Assay (SP1); type: cell-based; conditions: MCF-7 cells, 4 or 24 hr post compound addition, SP1 antibody; for Emax: MCF7, read-out: ER-α In Cell Western Assay (SP1) Max Response; for DC50: read-out: ER-α In Cell Western Assay (SP1) IC50
T1 construct: endogenous in cells; host or cells: MCF-7
T1 sequence (P03372 1-595): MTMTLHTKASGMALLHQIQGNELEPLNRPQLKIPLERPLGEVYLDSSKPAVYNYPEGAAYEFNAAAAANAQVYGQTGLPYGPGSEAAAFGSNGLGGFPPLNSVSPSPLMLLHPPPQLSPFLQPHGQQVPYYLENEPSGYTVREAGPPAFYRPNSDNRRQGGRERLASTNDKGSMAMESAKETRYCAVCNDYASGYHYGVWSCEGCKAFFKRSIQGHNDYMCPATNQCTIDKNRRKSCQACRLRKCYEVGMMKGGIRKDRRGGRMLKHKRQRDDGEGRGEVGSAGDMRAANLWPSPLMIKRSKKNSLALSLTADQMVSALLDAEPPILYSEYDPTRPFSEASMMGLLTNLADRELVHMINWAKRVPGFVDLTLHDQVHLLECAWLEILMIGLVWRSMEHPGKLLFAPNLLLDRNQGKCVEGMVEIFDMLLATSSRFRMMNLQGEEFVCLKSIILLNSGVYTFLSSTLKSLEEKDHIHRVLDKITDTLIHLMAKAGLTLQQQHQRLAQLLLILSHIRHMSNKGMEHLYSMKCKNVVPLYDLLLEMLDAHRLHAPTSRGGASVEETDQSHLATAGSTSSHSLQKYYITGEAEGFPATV
Description: MCF-7 cells were adjusted to a concentration of 200,000 cells per mL in RPMI containing 10% charcoal-stripped FBS and 20 mM HEPES. 16 microliters of the cell suspension (3200 cells) was added to each well of a poly-D-lysine 384 well plate, and the cells were incubated overnight to allow the cells to adhere. The following day an eleven point, serial semilog dilution of each compound was added to the cells in 16 μL at a final concentration ranging from 0.3-0.000003 μM. At 4 or 24 hr post compound addition, the cells were fixed (10% formalin in PBS) for 20 minutes. Cells were permeablized in PBS 0.1% Triton and blocked with LICOR blocking buffer (50 μl/well, 90′). The wells were then incubated overnight at 4° C. with SP1 rabbit monoclonal Ab (Thermo Scientific) diluted 1:1000 in LICOR blocking buffer/0.1% Tween-20. Wells which were treated with blocking buffer with Tween but no antibody were used as a background control. Wells were washed with 0.1% Tween-20/PBS and then incubated in goat anti-rabbit IRDye™ 800 CW (LICOR Inc.; 1:10000) and DRAQ5 DNA dye (1:2000 for 2 mM stock) diluted in LICOR blocking buffer containing 0.1% Tween-20 and 0.01% SDS for 60 minutes. Cells were washed (50 μl/well, 5′ each) in 0.1% Tween-20/PBS. Plates were scanned on a LICOR Odyssey infrared imaging system. Integrated intensities in the 800 nm channel and 700 nm channel were measured to determine levels of ER and DNA respectively. Percent ER levels were determined as follows: (Integrated intensity 800 nm sample/integrated intensity 700 nm sample)/(Integrated intensity 800 nm untreated cells/integrated intensity 700 nm untreated cells)×100=% ER levels.

| Compound | MCF7 Viability Assay Max Response (MCF-7 cells) | IC50 (MCF-7 cells) [nM] | Emax (ER-α) [%] | DC50 (ER-α) [nM] |
| --- | --- | --- | --- | --- |
| O=C(O)/C=C/c1ccc(/C(=C(\c2ccccc2)C2CCC2)c2ccc(-c3ccncc3)cc2)cc1 [Example 66, (E)-3-(4-((E)-2-Cyclobutyl-2-phenyl-1-(4-(pyridin-4-yl)phenyl)vinyl)phenyl)acrylic acid] | ++ (++ = a single % value ≧ 40%) | ≤ 100 | ≥ 40 | ≤ 100 |
| CC1CCN(c2ccc(/C(=C(/c3ccccc3)C3CCC3)c3ccc(/C=C/C(=O)O)cc3)cc2)CC1 [Example 64, (E)-3-(4-((E)-2-Cyclobutyl-1-(4-(4-methylpiperidin-1-yl)phenyl)-2-phenylvinyl)phenyl)acrylic acid] | ++ (++ = a single % value ≧ 40%) | > 100 | ≥ 40 | > 100 |
| O=C(O)/C=C/c1ccc(/C(=C(\c2ccccc2)C2CCC2)c2ccc(-c3ccon3)cc2)cc1 [Example 27, (E)-3-(4-((E)-2-Cyclobutyl-1-(4-(isoxazol-3-yl)phenyl)-2-phenylvinyl)phenyl)acrylic acid] | ++ (++ = a single % value ≧ 40%) | ≤ 100 | ≥ 40 | ≤ 100 |
| O=C(O)/C=C/c1ccc(/C(=C(\c2ccc(F)cc2Cl)C2CCC2)c2ccc(-c3cnn(CCO)c3)cc2)cc1 [Example 69, (E)-3-(4-((E)-2-(2-Chloro-4-fluorophenyl)-2-cyclobutyl-1-(4-(1-(2-hydroxyethyl)-1H-pyrazol-4-yl)phenyl)vinyl)phenyl)acrylic acid] | ++ (++ = a single % value ≧ 40%) | ≤ 100 | ≥ 40 | ≤ 100 |
| CN(C)CCn1cc(-c2ccc(/C(=C(/c3ccccc3)C3CCC3)c3ccc(/C=C/C(=O)O)cc3)cc2)cn1 [Example 70, (E)-3-(4-((E)-2-Cyclobutyl-1-(4-(1-(2-(dimethylamino)ethyl)-1H-pyrazol-4-yl)phenyl)-2-phenylvinyl)phenyl)acrylic acid] | ++ (++ = a single % value ≧ 40%) | ≤ 100 | ≥ 40 | ≤ 100 |
| CC/C(=C(/c1ccc(/C=C/C(=O)O)cc1)c1ccc(-c2ccn[nH]2)cc1)c1ccccc1 [Example 6, (E)-3-(4-((E)-1-(4-(1H-Pyrazol-5-yl)phenyl)-2-phenylbut-1-en-1-yl)phenyl)acrylic acid] | ++ (++ = a single % value ≧ 40%) | > 100 | ≥ 40 | ≤ 100 |
| O=C(O)/C=C/c1ccc(/C(=C(\c2ccc(OC(F)(F)F)cc2Cl)C2CCC2)c2ccc(-c3cn[nH]c3)cc2)cc1 [Example 52, (E)-3-(4-((E)-1-(4-(1H-Pyrazol-4-yl)phenyl)-2-(2-chloro-4-(trifluoromethoxy)phenyl)-2-cyclobutylvinyl)phenyl)acrylic acid] | ++ (++ = a single % value ≧ 40%) | ≤ 100 | ≥ 40 | ≤ 100 |
| O=C(O)/C=C/c1ccc(/C(=C(\c2ncccc2F)C2CCC2)c2ccc(-c3cn[nH]c3)cc2)cc1 [Example 41, (E)-3-(4-((E)-1-(4-(1H-Pyrazol-4-yl)phenyl)-2-cyclobutyl-2-(3-fluoropyridin-2-yl)vinyl)phenyl)acrylic acid] | ++ (++ = a single % value ≧ 40%) | > 100 | ≥ 40 | ≤ 100 |
| COc1cc(C)c(/C(=C(\c2ccc(/C=C/C(=O)O)cc2)c2ccc(N3CCOCC3)cc2)C2CCC2)cn1 [Example 39, (E)-3-(4-((E)-2-Cyclobutyl-2-(6-methoxy-4-methylpyridin-3-yl)-1-(4-morpholinophenyl)vinyl)phenyl)acrylic acid] | ++ (++ = a single % value ≧ 40%) | ≤ 100 | ≥ 40 | ≤ 100 |
| CC/C(=C(/c1ccc(/C=C/C(=O)O)cc1)c1cccc(-c2cscn2)c1)c1ccccc1 [Example 12, (E)-3-(4-((E)-2-Phenyl-1-(3-(thiazol-4-yl)phenyl)but-1-en-1-yl)phenyl)acrylic acid] | + (+ = a single % value < 40%) | > 100 | < 40 | > 100 |
| CC/C(=C(/c1ccc(/C=C/C(=O)O)cc1)c1ccc(-c2nccs2)cc1)c1ccccc1 [Example 8, (E)-3-(4-((E)-2-Phenyl-1-(4-(thiazol-2-yl)phenyl)but-1-en-1-yl)phenyl)acrylic acid] | ++ (++ = a single % value ≧ 40%) | > 100 | ≥ 40 | ≤ 100 |
| CC/C(=C(/c1ccc(/C=C/C(=O)O)cc1)c1ccc(-c2cnn(C)c2)cc1)c1ccccc1 [Example 19, (E)-3-(4-((E)-1-(4-(1-Methyl-1H-pyrazol-4-yl)phenyl)-2-phenylbut-1-en-1-yl)phenyl)acrylic acid] | ++ (++ = a single % value ≧ 40%) | ≤ 100 | ≥ 40 | ≤ 100 |
| CC/C(=C(/c1ccc(/C=C/C(=O)O)cc1)c1ccc(-c2cccnc2)cc1)c1ccccc1 [Example 14, (E)-3-(4-((E)-2-Phenyl-1-(4-(pyridin-3-yl)phenyl)but-1-en-1-yl)phenyl)acrylic acid] | ++ (++ = a single % value ≧ 40%) | > 100 | ≥ 40 | ≤ 100 |
| CC/C(=C(/c1ccc(/C=C/C(=O)O)cc1)c1ccc(-c2cncs2)cc1)c1ccncc1Cl [Example 28, (E)-3-(4-((E)-2-(3-Chloropyridin-4-yl)-1-(4-(thiazol-5-yl)phenyl)but-1-en-1-yl)phenyl)acrylic acid] | ++ (++ = a single % value ≧ 40%) | ≤ 100 | ≥ 40 | ≤ 100 |
| CC/C(=C(/c1ccc(/C=C/C(=O)O)cc1)c1ccc(-c2cncs2)c(F)c1)c1ccccc1 [Example 21, (E)-3-(4-((E)-1-(3-Fluoro-4-(thiazol-5-yl)phenyl)-2-phenylbut-1-en-1-yl)phenyl)acrylic acid] | ++ (++ = a single % value ≧ 40%) | ≤ 100 | ≥ 40 | ≤ 100 |
| COc1cc(C)c(/C(=C(\c2ccc(/C=C/C(=O)O)cc2)c2ccc(-c3cn[nH]c3)cc2)C2CCC2)cn1 [Example 61, (E)-3-(4-((E)-1-(4-(1H-Pyrazol-4-yl)phenyl)-2-cyclobutyl-2-(6-methoxy-4-methylpyridin-3-yl)vinyl)phenyl)acrylic acid] | ++ (++ = a single % value ≧ 40%) | ≤ 100 | ≥ 40 | ≤ 100 |
| CC/C(=C(/c1ccc(/C=C/C(=O)O)cc1)c1ccc(-c2cnsc2)cc1)c1ccccc1 [Example 15, (E)-3-(4-((E)-1-(4-(Isothiazol-4-yl)phenyl)-2-phenylbut-1-en-1-yl)phenyl)acrylic acid] | ++ (++ = a single % value ≧ 40%) | > 100 | ≥ 40 | ≤ 100 |

Source: patent US9586952B2, “Polycyclic estrogen receptor modulators and uses thereof” (SERAGON PHARMACEUTICALS, INC., priority 2013, dated 2017)
